The source of these data is PubChem BioAssay AID330 (DTP/NCI, 2004).

For the test, the system named is P388 leukemia ip, CD2F1 mice, survival T/C. Description: NCI In Vivo Anticancer Drug Screen. Data for tumor model P388 Leukemia (intraperitoneal) in CD2F1 (CDF1) mice. As to conditions: endpoint: median survival time, higher = longer survival. An outline of the steps:
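Mice carrying the transplanted tumor received test compound or vehicle. Survival was recorded in each group, and the value is the treated-group measurement divided by that of the vehicle-treated control group.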

Setting [1] is: dose: 12.5 mg/kg/injection, schedule: Q01DX009 (ip), vehicle: saline with Tween-80.
Where [2] appears, read: dose: 50.0 mg/kg/injection, schedule: Q01DX005 (ip), vehicle: saline with Tween-80.
The mark [3] stands for this setting: dose: 100.0 mg/kg/injection, schedule: Q01DX005 (ip), vehicle: saline with Tween-80.
Setting [4] is: dose: 200.0 mg/kg/injection, schedule: Q01DX005 (ip), vehicle: saline with Tween-80.
The mark [5] stands for this setting: dose: 50.0 mg/kg/injection, schedule: Q01DX009 (ip), vehicle: saline.
[6] abbreviates: dose: 100.0 mg/kg/injection, schedule: Q01DX009 (ip), vehicle: saline.
[7] abbreviates: dose: 50.0 mg/kg/injection, schedule: Q01DX005 (ip), vehicle: Klucel (hydroxypropylcellulose) (HPC).
[8] abbreviates: dose: 100.0 mg/kg/injection, schedule: Q01DX005 (ip), vehicle: Klucel (hydroxypropylcellulose) (HPC).
Setting [9] is: dose: 200.0 mg/kg/injection, schedule: Q01DX005 (ip), vehicle: Klucel (hydroxypropylcellulose) (HPC).
Where [10] appears, read: dose: 60.0 mg/kg/injection, schedule: Q01DX005 (ip), vehicle: Klucel (hydroxypropylcellulose) (HPC).
The mark [11] stands for this setting: dose: 100.0 mg/kg/injection, schedule: Q04DX002 (ip), vehicle: saline with Tween-80.
The mark [12] stands for this setting: dose: 60.0 mg/kg/injection, schedule: Q01DX005 (ip), vehicle: saline with Tween-80.
[13] abbreviates: dose: 120.0 mg/kg/injection, schedule: Q01DX005 (ip), vehicle: saline with Tween-80.
Where [14] appears, read: dose: 240.0 mg/kg/injection, schedule: Q01DX005 (ip), vehicle: saline with Tween-80.
Where [15] appears, read: dose: 6.25 mg/kg/injection, schedule: Q01DX009 (ip), vehicle: water.
[16] abbreviates: dose: 50.0 mg/kg/injection, schedule: Q01DX009 (ip), vehicle: Klucel (hydroxypropylcellulose) (HPC).
[17] abbreviates: dose: 100.0 mg/kg/injection, schedule: Q01DX009 (ip), vehicle: Klucel (hydroxypropylcellulose) (HPC).
The mark [18] stands for this setting: dose: 200.0 mg/kg/injection, schedule: Q01DX009 (ip), vehicle: Klucel (hydroxypropylcellulose) (HPC).

“And” between values parts separate entries of the source, which are not always exact repeats. Equal values may be shown once. Toxic doses and inconclusive results are not listed.

For the molecule `C[n+]1c(/C=C/c2ccccc2Cl)ccc2ccccc21`, the T/C reads like this: under setting [1], 94 % of control; (dose: 25.0 mg/kg/injection, schedule: Q01DX009 (ip), vehicle: saline with Tween-80) 100 % of control; (dose: 50.0 mg/kg/injection, schedule: Q01DX009 (ip), vehicle: saline with Tween-80) 94 % of control.

In the case of `Cc1cccc(/C=C/C(=O)C(C)CN(C)C)c1` (stereo not drawn), the T/C runs as follows: (dose: 15.0 mg/kg/injection, schedule: Q01DX005 (ip), vehicle: saline) 98 % of control; (dose: 30.0 mg/kg/injection, schedule: Q01DX005 (ip), vehicle: saline) 105 % of control; (dose: 60.0 mg/kg/injection, schedule: Q01DX005 (ip), vehicle: saline) 107 % of control and 116 % of control.

As to `O=P(OCc1ccccc1)(N(CCCl)CCCl)N1CCN(P(=O)(OCc2ccccc2)N(CCCl)CCCl)CC1` (stereo not drawn), the T/C was 150 % of control (dose: 100.0 mg/kg/injection, schedule: Q01DX009 (ip), vehicle: saline with Tween-80) and 116 % of control (dose: 100.0 mg/kg/injection, schedule: Q04DX003 (ip), vehicle: saline with Tween-80).

In the case of `CCOC(=O)C1=C(c2ccccc2)C2OC1C(COC(=O)NC)=C2COC(=O)NC` (stereo not drawn), the T/C runs as follows: (dose: 12.5 mg/kg/injection, schedule: Q01DX009 (ip), vehicle: distilled water + Tween-80) 96 % of control; (dose: 25.0 mg/kg/injection, schedule: Q01DX009 (ip), vehicle: distilled water + Tween-80) 93 % of control; (dose: 50.0 mg/kg/injection, schedule: Q01DX009 (ip), vehicle: distilled water + Tween-80) 87 % of control; (dose: 100.0 mg/kg/injection, schedule: Q01DX009 (ip), vehicle: distilled water + Tween-80) 87 % of control; (dose: 200.0 mg/kg/injection, schedule: Q01DX009 (ip), vehicle: distilled water + Tween-80) 99 % of control.

`CN(C)CCN(C)CCC(=O)/C=C/c1ccccc1`: the T/C is, setting by setting: (dose: 12.5 mg/kg/injection, schedule: Q01DX001 (ip), vehicle: saline) 94 % of control; (dose: 25.0 mg/kg/injection, schedule: Q01DX001 (ip), vehicle: saline) 101 % of control; (dose: 50.0 mg/kg/injection, schedule: Q01DX001 (ip), vehicle: saline) 111 % of control.

For `O=C1NC2CSC(CCCCC(=O)ON3C(=O)CCC3=O)C2N1` (stereo not drawn), the T/C reads like this: under setting [2], 104 % of control; under setting [3], 116 % of control; under setting [4], 116 % of control.

As to `CC(O)C(O)C(=O)O` (stereo not drawn), the T/C by setting is: under setting [5], 94 % of control; under setting [6], 93 % of control; (dose: 200.0 mg/kg/injection, schedule: Q01DX009 (ip), vehicle: saline) 91 % of control; (dose: 400.0 mg/kg/injection, schedule: Q01DX009 (ip), vehicle: saline) 92 % of control.

Turning to `Cc1cn(C23CC4CC(CC(C4)C2)C3)c(=O)[nH]c1=O`, the T/C by setting is: under setting [7], 101 % of control; under setting [8], 101 % of control; under setting [9], 97 % of control.

For `CCOC(=O)C1=C(C(=O)c2cccc3ccccc23)C(c2cccc([N+](=O)[O-])c2)C(C(=O)c2cccc3ccccc23)=C(C(=O)OCC)N1`, the T/C was 97 % of control (dose: 15.0 mg/kg/injection, schedule: Q01DX005 (ip), vehicle: Klucel (hydroxypropylcellulose) (HPC)); 97 % of control (dose: 30.0 mg/kg/injection, schedule: Q01DX005 (ip), vehicle: Klucel (hydroxypropylcellulose) (HPC)); 99 % of control under setting [10].

Regarding `Cc1cc2nc(CC(=O)c3cccc([N+](=O)[O-])c3)c(=O)[nH]c2cc1C`, the T/C is 95 % of control (dose: 7.5 mg/kg/injection, schedule: Q01DX005 (ip), vehicle: saline with Tween-80); 96 % of control (dose: 15.0 mg/kg/injection, schedule: Q01DX005 (ip), vehicle: saline with Tween-80); 91 % of control (dose: 30.0 mg/kg/injection, schedule: Q01DX005 (ip), vehicle: saline with Tween-80).

For the molecule `CC(=O)OCCN1CCN(CCCN2c3ccccc3Sc3ccc(C(F)(F)F)cc32)CC1`, for the setting “dose: 100.0 mg/kg/injection, schedule: Q04DX002 (ip), vehicle: saline”, the T/C was 89 % of control and 90 % of control.

Take `Cc1ccc(C(=O)N=Nc2c(Cl)c(O)c3ccccc3c2O)cc1`: the T/C under setting [7] is 103 % of control, the T/C under setting [8] is 99 % of control and the T/C under setting [9] is 103 % of control.

For `COC1=CC(C)(C)C(=O)S1`, the T/C was 100 % of control (dose: 25.0 mg/kg/injection, schedule: Q04DX002 (ip), vehicle: saline with Tween-80); 96 % of control (dose: 50.0 mg/kg/injection, schedule: Q04DX002 (ip), vehicle: saline with Tween-80); 100 % of control under setting [11].

As to `Clc1c(Cl)c(C[P+](CCP(c2ccccc2)c2ccccc2)(c2ccccc2)c2ccccc2)c(Cl)c(Cl)c1C[P+](CCP(c1ccccc1)c1ccccc1)(c1ccccc1)c1ccccc1`, the T/C under setting [1] is 120 % of control.

For `CC1=Nc2ccc(C)cc2N=C(C)C1`, the T/C reads like this: under setting [5], 86 % of control; under setting [6], 91 % of control.

With `O=c1[nH]ccn1-c1ccccc1`, the T/C under setting [12] was 102 % of control, the T/C under setting [13] was 100 % of control and the T/C under setting [14] was 97 % of control.

As for `c1ccc(-c2csc(=[N+]3CCCCC3)s2)cc1`, the T/C under setting [15] is 111 % of control and 117 % of control and 124 % of control.

With `c1ccc(-c2ccc[n+](CCC[n+]3cccc(-c4ccccn4)c3)c2)nc1`, the T/C by setting is: under setting [2], 114 % of control; under setting [3], 114 % of control.

With `C[Si](C)(C)CCCn1ccc(=O)[nH]c1=O`, the T/C under setting [12] was 98 % of control, the T/C under setting [13] is 92 % of control and the T/C under setting [14] was 88 % of control.

With `CC1(C)CN=C(NN=C(/C=C/c2ccc(C(F)(F)F)cc2)/C=C/c2ccc(C(F)(F)F)cc2)NC1`, the T/C reads like this: under setting [10], 98 % of control; (dose: 120.0 mg/kg/injection, schedule: Q01DX005 (ip), vehicle: Klucel (hydroxypropylcellulose) (HPC)) 98 % of control.

For `COC(C)(C)O/N=C(\C[n+]1ccccc1)c1ccccc1`, the T/C (dose: 3.13 mg/kg/injection, schedule: Q01DX009 (ip), vehicle: water) is 100 % of control; the T/C under setting [15] is 104 % of control; the T/C (dose: 12.5 mg/kg/injection, schedule: Q01DX009 (ip), vehicle: water) was 114 % of control; the T/C (dose: 25.0 mg/kg/injection, schedule: Q01DX009 (ip), vehicle: water) is 105 % of control.

Turning to `COC(=O)C[CH2][Sn]([CH3])([CH3])[CH2]CC(=O)OC`, the T/C under setting [7] is 104 % of control and the T/C under setting [8] is 100 % of control.

Turning to `Cc1[nH]nc2c(C/C=C/c3ccccc3)n[nH]c(=O)c12`, the T/C is 98 % of control under setting [16], 100 % of control under setting [17] and 101 % of control under setting [18].

`CCCC/[N+]([O-])=N/O`: the T/C is, setting by setting: (dose: 3.0 mg/kg/injection, schedule: Q01DX005 (ip), vehicle: Klucel (hydroxypropylcellulose) (HPC)) 103 % of control; (dose: 6.0 mg/kg/injection, schedule: Q01DX005 (ip), vehicle: Klucel (hydroxypropylcellulose) (HPC)) 95 % of control; (dose: 12.0 mg/kg/injection, schedule: Q01DX005 (ip), vehicle: Klucel (hydroxypropylcellulose) (HPC)) 100 % of control; (dose: 24.0 mg/kg/injection, schedule: Q01DX005 (ip), vehicle: Klucel (hydroxypropylcellulose) (HPC)) 101 % of control.

For the molecule `C/C(=N\NS(=O)(=O)c1ccc(C)cc1)c1c(C)noc1C`, the T/C reads like this: under setting [16], 94 % of control; under setting [17], 99 % of control; under setting [18], 100 % of control.

`COc1ccc(Nc2nc3c(s2)c(C)c(O)c2ccccc23)cc1`: the T/C under setting [12] was 95 % of control, the T/C under setting [13] was 103 % of control and the T/C under setting [14] was 112 % of control.

Take `NC(=O)CNCc1ccccc1`: the T/C is, setting by setting: under setting [2], 94 % of control; under setting [3], 99 % of control; under setting [4], 94 % of control.

Regarding `O=C1NN2CCCN=C2c2cccnc21`, the T/C is, setting by setting: under setting [11], 101 % of control; (dose: 200.0 mg/kg/injection, schedule: Q04DX002 (ip), vehicle: saline with Tween-80) 98 % of control; (dose: 400.0 mg/kg/injection, schedule: Q04DX002 (ip), vehicle: saline with Tween-80) 101 % of control.
